Measured values from article PMC10770618, “A simple assay for inhibitors of mycobacterial oxidative phosphorylation” (The Journal of Biological Chemistry, 2023).
Where two headings read alike, the source gives them in different places.

Molecular target: T1, CIII2CIV2 (Complex III2IV2, cytochrome bcc-aa3 supercomplex) (Mycolicibacterium smegmatis, UniProt A0R052+I7GD61)
T1 construct: gene MSMEG_4263; CIII2CIV2 in IMVs from strain QcrB-3×FLAG (3×FLAG tag at the C terminus of the QcrB subunit); with other subunits of the CIII2CIV2 supercomplex
Experiment: succinate-driven acidification of inverted membrane vesicles (ACMA fluorescence); no inhibition of ATP-driven acidification
Assay type: biochemical

Q: How did the IC50 turn out when `CCc1nc2ccc(Cl)cn2c1C(=O)NCc1ccc(N2CCC(c3ccc(OC(F)(F)F)cc3)CC2)cc1` [Q203, telacebec] was run?
A: Its IC50 is about 140 nM.

Q: `Cc1c(OCC(F)(F)F)ccnc1CSc1nc2ccccc2[nH]1` [LPZS, lansoprazole sulfide] was tested. Which IC50 (read-out: IC50) did it give?
A: The IC50 was about 860 nM.
